# The source made the active and inactive calls. No cut-off for these calls is given here.
# Tests used:
# [1] = test system: EMT6; assay: Potentiation of laromustine-induced cytotoxicity against mouse EMT6 cells expressing human AGT assessed as cell survival fraction at 2 uM treated 2 hrs before laromustine addition measured after 18 hrs by clonogenic assay; type: functional, cell-based
# [2] = test system: EMT6; assay: Cytotoxicity against mouse EMT6 cells expressing human AGT assessed as cell survival fraction at 2 uM after 18 hrs by clonogenic assay; type: cell-based; settings: emt6, 18 h
# [3] = molecular target: T1, Methylated-DNA--protein-cysteine methyltransferase (Homo sapiens, UniProt P16455)
# T1 sequence (P16455 whole entry): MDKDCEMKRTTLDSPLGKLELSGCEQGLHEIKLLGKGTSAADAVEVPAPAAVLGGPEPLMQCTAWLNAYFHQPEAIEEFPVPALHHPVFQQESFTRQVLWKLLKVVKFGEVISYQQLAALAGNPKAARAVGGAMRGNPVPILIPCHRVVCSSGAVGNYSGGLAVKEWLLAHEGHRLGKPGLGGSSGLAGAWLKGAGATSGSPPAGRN
# Description: Inhibition of AGT in human HL60 cells assessed as AGT levels using [3H]AGT after 2 hrs
# [4] = test system: EMT6; assay: Stability of the compound in mouse EMT6 cells assessed as parent compound level under hypoxic condition at 200 uM after 1 hr by HPLC analysis; type: ADME, cell-based; settings: emt6, 1 h
# [5] = test system: EMT6; assay: Stability of the compound in mouse EMT6 cells assessed as parent compound level under oxic condition at 200 uM after 1 hr by HPLC analysis; type: ADME, cell-based; settings: emt6, 1 h
# [6] = test system: EMT6; assay: Prodrug activation in mouse EMT6 cells assessed as 6-((3-((dimethylamino)methyl)benzyl)oxy)-9H-purin-2-amine level under hypoxic condition at 200 uM after 1 hr by HPLC analysis; type: cell-based; settings: emt6, 1 h
# [7] = test system: EMT6; assay: Prodrug activation in mouse EMT6 cells assessed as 6-((3-((dimethylamino)methyl)benzyl)oxy)-9H-purin-2-amine level under oxic condition at 200 uM after 1 hr by HPLC analysis; type: cell-based; settings: emt6, 1 h
SMILES,Activity [1],Activity [2],IC50 [3],other results
CC(=O)NCc1cccc(COc2nc(N)nc3[nH]cnc23)c1,Active,Non-toxic,86 nM,
NCc1cccc(COc2nc(N)nc3nc[nH]c23)c1,Active,Non-toxic,,
Nc1nc(OCc2ccccc2)c2nc[nH]c2n1,Active,,,
Nc1nc(OCc2ccccc2)c2[nH]cnc2n1 [6-O-BENZYLGUANINE],,Non-toxic,,
CN(C)Cc1cccc(COc2nc(N)nc3[nH]cnc23)c1,Active,Non-toxic,25 nM,Stability [4]: 12.3 µM; Stability [5]: 0.2 µM
CN(C)Cc1cccc(COc2nc(NC(=O)OC(C)(C)c3ccc([N+](=O)[O-])cc3)nc3[nH]cnc23)c1,,,,Drug metabolism [6]: 149.6 µM; Drug metabolism [7]: 195.5 µM

# From ChEMBL document CHEMBL2169860, “Design of a hypoxia-activated prodrug inhibitor of O6-alkylguanine-DNA alkyltransferase” (Bioorg Med Chem Lett, 2012)
